Data from ChEMBL document CHEMBL4138123, “Design, synthesis and biological evaluation of novel pyrazolochalcones as potential modulators of PI3K/Akt/mTOR pathway and inducers of apoptosis in breast cancer cells” (Eur J Med Chem, 2017).

Columns and labels:
Type in all cases: functional
K562 = experiment: Cytotoxicity against human K562 cells assessed as growth inhibition after 48 hrs by sulforhodamine B assay; settings: K562, 48 h
A549 [1] = experiment: Cytotoxicity against human A549/ATCC cells assessed as growth inhibition after 48 hrs by sulforhodamine B assay; settings: A549, 48 h
HCT-116 [2] = experiment: Cytotoxicity against human HCT116 cells assessed as growth inhibition after 48 hrs by sulforhodamine B assay; settings: HCT-116, 48 h
Malme-3M [3] = experiment: Cytotoxicity against human MALME-3M cells assessed as growth inhibition after 48 hrs by sulforhodamine B assay
M14 = experiment: Cytotoxicity against human M14 cells assessed as growth inhibition after 48 hrs by sulforhodamine B assay; settings: M14, 48 h
OVCAR-8 [4] = experiment: Cytotoxicity against human OVCAR8 cells assessed as growth inhibition after 48 hrs by sulforhodamine B assay; settings: OVCAR-8, 48 h
CCRF-CEM [5] = experiment: Cytotoxicity against human CCRF-CEM cells assessed as cell growth at 0.01 uM after 48 hrs by sulforhodamine B assay relative to control; settings: read-out: Activity
MDA-MB-435 = experiment: Cytotoxicity against human MDA-MB-435 cells assessed as cell growth at 0.01 uM after 48 hrs by sulforhodamine B assay relative to control; settings: MDA-MB-435, 48 h, read-out: Activity
SF-268 = experiment: Cytotoxicity against human SF268 cells assessed as cell growth at 0.01 uM after 48 hrs by sulforhodamine B assay relative to control; settings: SF-268, 48 h, read-out: Activity
HT-29 [6] = experiment: Cytotoxicity against human HT-29 cells assessed as cell growth at 0.01 uM after 48 hrs by sulforhodamine B assay relative to control; settings: HT-29, 48 h, read-out: Activity
A549 [7] = experiment: Cytotoxicity against human A549/ATCC cells assessed as cell growth at 0.01 uM after 48 hrs by sulforhodamine B assay relative to control; settings: A549, 48 h, read-out: Activity
RPMI-8226 [8] = experiment: Cytotoxicity against human RPMI8226 cells assessed as cell growth at 0.01 uM after 48 hrs by sulforhodamine B assay relative to control; settings: RPMI-8226, 48 h, read-out: Activity
PC-3 = experiment: Cytotoxicity against human PC3 cells assessed as cell growth at 0.01 uM after 48 hrs by sulforhodamine B assay relative to control; settings: PC-3, 48 h, read-out: Activity
HCT-15 = experiment: Cytotoxicity against human HCT15 cells assessed as cell growth at 0.1 uM after 48 hrs by sulforhodamine B assay relative to control; settings: HCT-15, 48 h, read-out: Activity
HT-29 [9] = experiment: Cytotoxicity against human HT-29 cells assessed as cell growth at 0.1 uM after 48 hrs by sulforhodamine B assay relative to control; settings: HT-29, 48 h, read-out: Activity
SK-MEL-28 = experiment: Cytotoxicity against human SK-MEL-28 cells assessed as cell growth at 0.1 uM after 48 hrs by sulforhodamine B assay relative to control; settings: SK-MEL-28, 48 h, read-out: Activity
MDA-MB-468 = experiment: Cytotoxicity against human MDA-MB-468 cells assessed as cell growth at 0.1 uM after 48 hrs by sulforhodamine B assay relative to control; settings: MDA-MB-468, 48 h, read-out: Activity
CCRF-CEM [10] = experiment: Cytotoxicity against human CCRF-CEM cells assessed as cell growth at 1 uM after 48 hrs by sulforhodamine B assay relative to control; settings: read-out: Activity
NCI-H460 = experiment: Cytotoxicity against human NCI-H460 cells assessed as cell growth at 1 uM after 48 hrs by sulforhodamine B assay relative to control; settings: NCI-H460, 48 h, read-out: Activity
SW-620 [11] = experiment: Cytotoxicity against human SW620 cells assessed as cell growth at 1 uM after 48 hrs by sulforhodamine B assay relative to control; settings: SW-620, 48 h, read-out: Activity
UACC-257 = experiment: Cytotoxicity against human UACC257 cells assessed as cell growth at 1 uM after 48 hrs by sulforhodamine B assay relative to control; settings: UACC-257, 48 h, read-out: Activity
OVCAR-8 [12] = experiment: Cytotoxicity against human OVCAR8 cells assessed as cell growth at 1 uM after 48 hrs by sulforhodamine B assay relative to control; settings: OVCAR-8, 48 h, read-out: Activity
NCI-H226 [13] = experiment: Cytotoxicity against human NCI-H226 cells assessed as cell growth at 10 uM after 48 hrs by sulforhodamine B assay relative to control; settings: NCI-H226, 48 h, read-out: Activity
SW-620 [14] = experiment: Cytotoxicity against human SW620 cells assessed as cell growth at 10 uM after 48 hrs by sulforhodamine B assay relative to control; settings: SW-620, 48 h, read-out: Activity
U-251 = experiment: Cytotoxicity against human U251 cells assessed as cell growth at 10 uM after 48 hrs by sulforhodamine B assay relative to control; settings: U-251, 48 h, read-out: Activity
Malme-3M [15] = experiment: Cytotoxicity against human MALME-3M cells assessed as cell growth at 10 uM after 48 hrs by sulforhodamine B assay relative to control; settings: read-out: Activity
OVCAR-8 [16] = experiment: Cytotoxicity against human OVCAR8 cells assessed as cell growth at 10 uM after 48 hrs by sulforhodamine B assay relative to control; settings: OVCAR-8, 48 h, read-out: Activity
DU-145 = experiment: Cytotoxicity against human DU145 cells assessed as cell growth at 10 uM after 48 hrs by sulforhodamine B assay relative to control; settings: DU-145, 48 h, read-out: Activity
RPMI-8226 [17] = experiment: Cytotoxicity against human RPMI8226 cells assessed as cell growth at 100 uM after 48 hrs by sulforhodamine B assay relative to control; settings: RPMI-8226, 48 h, read-out: Activity
NCI-H226 [18] = experiment: Cytotoxicity against human NCI-H226 cells assessed as cell growth at 100 uM after 48 hrs by sulforhodamine B assay relative to control; settings: NCI-H226, 48 h, read-out: Activity
COLO 205 = experiment: Cytotoxicity against human COLO205 cells assessed as cell growth at 100 uM after 48 hrs by sulforhodamine B assay relative to control; settings: COLO 205, 48 h, read-out: Activity
HCT-116 [19] = experiment: Cytotoxicity against human HCT116 cells assessed as cell growth at 100 uM after 48 hrs by sulforhodamine B assay relative to control; settings: HCT-116, 48 h, read-out: Activity
SF-539 = experiment: Cytotoxicity against human SF539 cells assessed as cell growth at 100 uM after 48 hrs by sulforhodamine B assay relative to control; settings: SF-539, 48 h, read-out: Activity
SNB-19 = experiment: Cytotoxicity against human SNB19 cells assessed as cell growth at 100 uM after 48 hrs by sulforhodamine B assay relative to control; settings: SNB-19, 48 h, read-out: Activity
Malme-3M [20] = experiment: Cytotoxicity against human MALME-3M cells assessed as cell growth at 100 uM after 48 hrs by sulforhodamine B assay relative to control; settings: read-out: Activity
SN12C = experiment: Cytotoxicity against human SN12C cells assessed as cell growth at 100 uM after 48 hrs by sulforhodamine B assay relative to control; settings: read-out: Activity

SMILES: COc1ccc(-c2cc(/C=C/C(=O)c3ccc(N)cc3)[nH]n2)cc1
- GI50 (K562): 1.42 µM
- LC50 (concentration killing 50% of cells) (K562): 69.7 µM
- TGI (K562): 11.6 µM
- GI50 (A549 [1]): 2.55 µM
- LC50 (concentration giving 50% net cell kill) (A549 [1]): 46.9 µM
- TGI (A549 [1]): 10.2 µM
- GI50 (HCT-116 [2]): 1.38 µM
- TGI (HCT-116 [2]): 3.61 µM
- GI50 (Malme-3M [3]): 2.18 µM
- LC50 (Malme-3M [3]): 28.8 µM
- TGI (Malme-3M [3]): 6.22 µM
- GI50 (M14): 2.67 µM
- LC50 (concentration killing 50% of cells) (M14): 36.1 µM
- TGI (M14): 6.54 µM
- GI50 (OVCAR-8 [4]): 2.44 µM
- LC50 (OVCAR-8 [4]): > 100 µM
- TGI (OVCAR-8 [4]): 15.4 µM
- growth at 0.01 µM (CCRF-CEM [5]): 99%
- growth at 0.01 µM (MDA-MB-435): 97%
- growth at 0.01 µM (SF-268): 95%
- growth at 0.01 µM (HT-29 [6]): 97%
- growth at 0.01 µM (A549 [7]): 101%
- growth at 0.01 µM (RPMI-8226 [8]): 99%
- growth at 0.01 µM (PC-3): 95%
- growth at 0.1 µM (HCT-15): 100%
- growth at 0.1 µM (HT-29 [9]): 95%
- growth at 0.1 µM (SK-MEL-28): 91%
- growth at 0.1 µM (MDA-MB-468): 86%
- growth at 1 µM (CCRF-CEM [10]): 61%
- growth at 1 µM (NCI-H460): 92%
- growth at 1 µM (SW-620 [11]): 72%
- growth at 1 µM (UACC-257): 90%
- growth at 1 µM (OVCAR-8 [12]): 76%
- growth at 10 µM (NCI-H226 [13]): -29%
- growth at 10 µM (SW-620 [14]): -26%
- growth at 10 µM (U-251): -94%
- growth at 10 µM (Malme-3M [15]): -23%
- growth at 10 µM (OVCAR-8 [16]): 9%
- growth at 10 µM (DU-145): -55%
- growth at 100 µM (RPMI-8226 [17]): -67%
- growth at 100 µM (NCI-H226 [18]): -51%
- growth at 100 µM (COLO 205): -74%
- growth at 100 µM (HCT-116 [19]): -15%
- growth at 100 µM (SF-539): -94%
- growth at 100 µM (SNB-19): -80%
- growth at 100 µM (Malme-3M [20]): -82%
- growth at 100 µM (SN12C): -78%

SMILES: COc1ccc(-c2cc(/C=C/C(=O)c3ccc(N)cc3)[nH]n2)cc1OC
- GI50 (K562): 2.03 µM
- LC50 (concentration killing 50% of cells) (K562): > 100 µM
- TGI (K562): 36.4 µM
- GI50 (A549 [1]): 2.75 µM
- LC50 (concentration giving 50% net cell kill) (A549 [1]): 45.2 µM
- TGI (A549 [1]): 10.1 µM
- GI50 (HCT-116 [2]): 1.71 µM
- LC50 (HCT-116 [2]): 7.19 µM
- TGI (HCT-116 [2]): 3.51 µM
- GI50 (Malme-3M [3]): 6.72 µM
- LC50 (Malme-3M [3]): 59.2 µM
- TGI (Malme-3M [3]): 21.2 µM
- GI50 (M14): 2.28 µM
- LC50 (concentration killing 50% of cells) (M14): 15 µM
- TGI (M14): 5.11 µM
- GI50 (OVCAR-8 [4]): 2.95 µM
- LC50 (OVCAR-8 [4]): 39 µM
- TGI (OVCAR-8 [4]): 10.5 µM
- growth at 0.01 µM (CCRF-CEM [5]): 97%
- growth at 0.01 µM (MDA-MB-435): 91%
- growth at 0.01 µM (SF-268): 100%
- growth at 0.01 µM (HT-29 [6]): 98%
- growth at 0.01 µM (A549 [7]): 97%
- growth at 0.01 µM (RPMI-8226 [8]): 98%
- growth at 0.01 µM (PC-3): 95%
- growth at 0.1 µM (HCT-15): 95%
- growth at 0.1 µM (HT-29 [9]): 107%
- growth at 0.1 µM (SK-MEL-28): 93%
- growth at 0.1 µM (MDA-MB-468): 91%
- growth at 1 µM (CCRF-CEM [10]): 68%
- growth at 1 µM (NCI-H460): 94%
- growth at 1 µM (SW-620 [11]): 95%
- growth at 1 µM (UACC-257): 96%
- growth at 1 µM (OVCAR-8 [12]): 93%
- growth at 10 µM (NCI-H226 [13]): -13%
- growth at 10 µM (SW-620 [14]): -18%
- growth at 10 µM (U-251): -68%
- growth at 10 µM (Malme-3M [15]): 37%
- growth at 10 µM (OVCAR-8 [16]): 2%
- growth at 10 µM (DU-145): 15%
- growth at 100 µM (RPMI-8226 [17]): -40%
- growth at 100 µM (NCI-H226 [18]): -55%
- growth at 100 µM (COLO 205): -78%
- growth at 100 µM (HCT-116 [19]): -89%
- growth at 100 µM (SF-539): -92%
- growth at 100 µM (SNB-19): -91%
- growth at 100 µM (Malme-3M [20]): -75%
- growth at 100 µM (SN12C): -90%
